Measured values published in article PMC9684503 (Communications Biology, 2022).
Counter-ions that a name gives are not always drawn. Like-named read-outs stand apart in the source and are kept apart here.

Molecular target: T1, rat VMAT2-His (Rattus norvegicus, UniProt Q01827)
T1 construct: The ORF of rat VMAT2 was subcloned into a pFastBac vector; His; made in house; host or cells: Sf9 insect cells (baculovirus)
Test: Differential scanning fluorimetry (DSF) with CPM dye: change of melting temperature of purified VMAT2
Type: binding
Settings: for ΔTm at 12 µM / ΔTm at 37 µM / ΔTm at 10 µM / ΔTm at 30 µM / ΔTm at 90 µM / ΔTm at 270 µM / ΔTm at 11 µM / ΔTm at 33 µM: read-out: ΔTm
Procedure: To screen purified VMAT2 by DSF we expressed the rat VMAT2 protein, as VMAT2-His, in SF9 insect cells using the baculovirus expression system. The transporter was solubilized and purified in n-Dodecyl-β-D-maltoside (DDM)/cholesterol hemisuccinate (CHS) micelles by immobilized metal affinity chromatography (IMAC) and size exclusion chromatography (SEC). […] Screening was performed using DSF and the thiol-reactive dye 7-diethylamino-3-(4-maleimidophenyl)-4-methylcoumarin (CPM), an approach that monitors changes to the protein melting temperature (Tm) upon compound binding. Using CPM or other dyes, DSF-based assays have successfully been used in molecular-based screenings[34],[35]. […] DSF screening was performed in 384 well plates using the thiol-sensing dye 7-diethylamino-3-(4-maleimidophenyl)-4-methylcoumarin (CPM) (Merck). […] Protein melting curves were determined using a LightCycler 480 ii RT-PCR system (Roche), with a temperature ramp increasing from 25 to 95 °C at a rate of 2 °C/min. Data analysis was performed using an in-house software that automatically determines the protein midpoint melting temperature (Tm) based on the second derivative of the melting curves or using the HTSDSF explorer as described in ref. [58]. […] 6 μl of this mix was dispensed to each well of 384 well plates using a Multidrop™ Combi Reagent Dispenser (Thermo Scientific). […] All initial hits were then subjected to an initial validation in triplicates with a compound concentration of 200 μM and a ΔTm > 5× the standard deviation (SD) cut off. […] Processing of the data from the primary screening and the concentration-dependent validation was performed as reported.

[1] = Table S2 dose response, compound 0,12 µM
[2] = Table S2 dose response, compound 0,37 µM
[3] = Table S2 dose response, compound 10 µM
[4] = Table S2 dose response, compound 30 µM
[5] = Table S2 dose response, compound 90 µM
[6] = Table S2 dose response, compound 270 µM
[7] = Table S2 dose response, compound 1,11 µM
[8] = Table S2 dose response, compound 3,33 µM
[9] = Table S1, primary hits, average change in melting temperature vs controls, triplicates

T1 sequence (Q01827 whole entry): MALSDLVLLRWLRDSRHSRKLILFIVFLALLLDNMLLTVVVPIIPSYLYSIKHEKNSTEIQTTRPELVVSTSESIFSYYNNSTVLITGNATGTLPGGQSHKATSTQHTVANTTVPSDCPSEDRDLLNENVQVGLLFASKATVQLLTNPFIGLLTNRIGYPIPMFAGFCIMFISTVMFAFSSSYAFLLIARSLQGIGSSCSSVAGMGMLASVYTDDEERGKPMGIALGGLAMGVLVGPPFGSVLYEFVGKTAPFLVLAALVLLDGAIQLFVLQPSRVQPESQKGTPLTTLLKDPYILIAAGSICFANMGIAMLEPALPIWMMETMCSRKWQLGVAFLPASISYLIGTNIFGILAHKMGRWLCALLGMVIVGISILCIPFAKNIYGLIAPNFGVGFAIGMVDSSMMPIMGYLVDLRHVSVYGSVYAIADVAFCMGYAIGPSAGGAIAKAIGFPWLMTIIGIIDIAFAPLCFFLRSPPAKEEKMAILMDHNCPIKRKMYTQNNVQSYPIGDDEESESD

In the case of CC(C)COCC(CN(Cc1ccccc1)c1ccccc1)N1CCCC1 (stereo not drawn) [Bepridil hydrochloride], the ΔTm at 12 µM [1] is reported as -0.78 °C, the ΔTm at 37 µM [2] is reported as -0.68 °C and the ΔTm at 10 µM [3] is reported as -1.08 °C. For the same compound, the ΔTm at 30 µM [4] was -1.2 °C, the ΔTm at 90 µM [5] was -1.63 °C and the ΔTm at 270 µM [6] was -3.8 °C. It also gave a ΔTm at 11 µM [7] of -0.75 °C and a ΔTm at 33 µM [8] of -0.93 °C.

For CN1CCC(=C2c3ccccc3Sc3ccccc32)CC1 [Pimethixene maleate], the ΔTm at 10 µM [3] was 0.15 °C, the ΔTm at 30 µM [4] was -0.18 °C and the ΔTm at 90 µM [5] was -0.14 °C. For the same compound, the ΔTm at 270 µM [6] was -1.59 °C.

In the case of Clc1ccc(Cn2c(CN3CCCC3)nc3ccccc32)cc1 [Clemizole hydrochloride], the ΔTm [9] is reported as -1,46 ± 0,10 oC, the ΔTm at 10 µM [3] is reported as 0.33 °C and the ΔTm at 30 µM [4] is reported as 0.57 °C. For the same compound, the ΔTm at 90 µM [5] was 0.31 °C and the ΔTm at 270 µM [6] was -0.69 °C.

CN(C)CCCN1c2ccccc2Sc2ccc(C(F)(F)F)cc21 [Triflupromazine hydrochloride] was tested, and the ΔTm was -4,15 ± 0, 03 oC, the ΔTm at 10 µM was -0.1 °C and the ΔTm at 30 µM was -0.1 °C. For the same compound, the ΔTm at 90 µM was -0.84 °C and the ΔTm at 270 µM was -2.21 °C.

With CCSc1ccc2c(c1)N(CCCN1CCN(C)CC1)c1ccccc1S2.O=C(O)CC(O)C(=O)O.O=C(O)CC(O)C(=O)O [Thiethylperazine dimalate] the ΔTm (11 µM) was -0,77 oC, the ΔTm (12 µM) was -0,61 oC and the ΔTm (33 µM) was -0,78 oC. For the same compound, the ΔTm (37 µM) was -0,58 oC, the ΔTm (270 µM) was -3,69 oC and the ΔTm [3] was -1,01 oC. For the same compound, the ΔTm [4] was -1,34 oC and the ΔTm [5] was -2,15 oC.

In the case of C[C@@H]1C[C@H]2[C@@H]3C[C@H](F)C4=CC(=O)C=C[C@]4(C)[C@@]3(Cl)[C@@H](O)C[C@]2(C)[C@H]1C(=O)COC(=O)C(C)(C)C [Clocortolone pivalate], the ΔTm [9] is reported as 1,04 ± 0,11 oC.

Work on CCCCC(CC)CN1CN(CC(CC)CCCC)CC(C)(N)C1 (stereo not drawn) [Hexetidine] yielded a ΔTm at 12 µM [1] of -0.09 °C, a ΔTm at 37 µM [2] of -0.06 °C and a ΔTm at 10 µM [3] of -0.28 °C. For the same compound, the ΔTm at 30 µM [4] was -0.3 °C, the ΔTm at 90 µM [5] was -0.46 °C and the ΔTm at 270 µM [6] was -1.54 °C. The ΔTm at 11 µM [7] was -0.02 °C and the ΔTm at 33 µM [8] was -0.07 °C.

In the case of C#CCN(C)[C@H](C)Cc1ccccc1 [Selegiline hydrochloride], the ΔTm at 10 µM [3] is reported as 0.3 °C, the ΔTm at 30 µM [4] is reported as 0.19 °C and the ΔTm at 90 µM [5] is reported as 0.28 °C. For the same compound, the ΔTm at 11 µM was 0.31 °C, the ΔTm at 12 µM was 0.33 °C and the ΔTm at 33 µM was 0.32 °C. It also gave a ΔTm at 37 µM of 0.38 °C and a ΔTm at 270 µM of 0.36 °C.

Work on COC(=O)[C@H]1[C@H]2C[C@@H]3c4[nH]c5cc(OC)ccc5c4CCN3C[C@H]2C[C@@H](OC(=O)c2cc(OC)c(OC)c(OC)c2)[C@@H]1OC [Reserpine] yielded a ΔTm at 10 µM of 13.5 °C, a ΔTm at 11 µM of 13.6 °C and a ΔTm at 12 µM of 13.7 °C. It also gave a ΔTm at 30 µM of 13.9 °C, a ΔTm at 33 µM of 13.6 °C and a ΔTm at 37 µM of 13.7 °C. The ΔTm at 90 µM was 14 °C and the ΔTm at 270 µM was 13.7 °C.

With CN1CCN(CCCN2c3ccccc3Sc3ccc(C(F)(F)F)cc32)CC1 [Trifluoperazine dihydrochloride] the ΔTm was -6,15 ± 0, 08 oC, the ΔTm at 10 µM was -0.69 °C and the ΔTm at 30 µM was -0.28 °C. It also gave a ΔTm at 90 µM of -0.23 °C and a ΔTm at 270 µM of -1.05 °C.

With CN[C@@H]1C[C@@H](c2ccc(Cl)c(Cl)c2)c2ccccc21 [Indatraline hydrochloride] the ΔTm at 10 µM [3] was -0.37 °C, the ΔTm at 30 µM [4] was -0.63 °C and the ΔTm at 90 µM [5] was -1.01 °C. The ΔTm at 11 µM was -0.28 °C, the ΔTm at 12 µM was 0.24 °C and the ΔTm at 33 µM was -0.41 °C. The ΔTm at 37 µM was 0.04 °C and the ΔTm at 270 µM was -2.11 °C.

In the case of C[C@H](CCC(=O)O)[C@H]1CC[C@H]2[C@@H]3C(=O)C[C@@H]4CC(=O)CC[C@]4(C)[C@H]3CC(=O)[C@]12C [Dehydrocholic acid], the ΔTm [9] is reported as 1,51 ± 0,28 oC, the ΔTm at 10 µM [3] is reported as 0.39 °C and the ΔTm at 30 µM [4] is reported as 0.66 °C. The ΔTm at 90 µM [5] was 0.53 °C and the ΔTm at 270 µM [6] was 1.43 °C.

Cl.Cl.OCCN1CCN(CC/C=C2/c3ccccc3Sc3ccc(Cl)cc32)CC1 [Zuclopenthixol dihydrochloride] was tested, and the ΔTm (11 µM) was -0,58 oC, the ΔTm (12 µM) was -0,36 oC and the ΔTm (33 µM) was 0,03 oC. For the same compound, the ΔTm (37 µM) was -0,44 oC, the ΔTm (270 µM) was -1,51 oC and the ΔTm [3] was -0,07 oC. For the same compound, the ΔTm [4] was -1,80 oC and the ΔTm [5] was -0,79 oC.
